Assay results published in patent publication US20250289804A1, “SUBSTITUTED INDOLE COMPOUNDS AND METHODS OF USE THEREOF” (NOVARTIS PHARMA AG, priority 2021, published 2025).
Where two headings read alike, the source gives them in different places.

What was measured:
human C3bBb = human C3bBb (Homo sapiens (Human), UniProt P00751); experiment: Human C3bBb enzyme assay (C3a generation from C3, ELISA); assay type: biochemical; conditions: read-out: Human C3b:Bb IC50 Avg
Procedure, shortened: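 C3bBb was preformed from human C3b, CFB and CFD at 1 μM each (30 min, RT) in PBS pH 7.4 with 100 μM NiCl2 and 0.05% CHAPS. Then 3 nM complex with 1 μM human C3 was incubated with compound for 1 h at RT. C3a was quantified by ELISA against a standard curve, and IC50 came from a 10-point 4-parameter fit.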

[1] = test system: MAC formation in normal human serum; experiment: Human serum MAC formation assay (zymosan-coated plates, 50% normal human serum); conditions: 50% normal human serum with EGTA, 37° C. 30 minutes
Procedure, shortened: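 Compounds preincubated 15 min at RT with 50% normal human serum in gelatin buffer plus 20 mM EGTA, then complement activated 30 min at 37 °C on zymosan-coated plates. C9 neoepitope ELISA, fluorogenic readout. Percent inhibition vs EDTA-serum baseline and EGTA-serum maximum; IC50 from 4-parameter fit of 10-point curves.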

[2] = starred values: assay conducted with 1 nM C3b:Bb enzyme
[3] = 3 nM C3bBb complex, 1 μM human C3, 1 hour room temperature

Sequence of human C3bBb (P00751 260-764): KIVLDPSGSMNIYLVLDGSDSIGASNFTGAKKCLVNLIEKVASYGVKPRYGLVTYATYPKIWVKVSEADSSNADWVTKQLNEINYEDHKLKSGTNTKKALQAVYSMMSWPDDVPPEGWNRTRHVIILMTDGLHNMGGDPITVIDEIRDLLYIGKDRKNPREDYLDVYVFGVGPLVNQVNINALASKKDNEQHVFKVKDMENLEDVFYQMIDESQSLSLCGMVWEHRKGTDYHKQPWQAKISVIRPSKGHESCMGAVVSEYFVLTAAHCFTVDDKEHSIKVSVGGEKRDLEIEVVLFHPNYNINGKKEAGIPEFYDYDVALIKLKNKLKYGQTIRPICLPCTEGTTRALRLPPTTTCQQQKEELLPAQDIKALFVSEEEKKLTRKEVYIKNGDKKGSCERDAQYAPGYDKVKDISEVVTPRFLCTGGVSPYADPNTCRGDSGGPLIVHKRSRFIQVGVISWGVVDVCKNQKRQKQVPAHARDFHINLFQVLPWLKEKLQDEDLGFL
Sequence of human C3bBb (P01024 23-667 partner): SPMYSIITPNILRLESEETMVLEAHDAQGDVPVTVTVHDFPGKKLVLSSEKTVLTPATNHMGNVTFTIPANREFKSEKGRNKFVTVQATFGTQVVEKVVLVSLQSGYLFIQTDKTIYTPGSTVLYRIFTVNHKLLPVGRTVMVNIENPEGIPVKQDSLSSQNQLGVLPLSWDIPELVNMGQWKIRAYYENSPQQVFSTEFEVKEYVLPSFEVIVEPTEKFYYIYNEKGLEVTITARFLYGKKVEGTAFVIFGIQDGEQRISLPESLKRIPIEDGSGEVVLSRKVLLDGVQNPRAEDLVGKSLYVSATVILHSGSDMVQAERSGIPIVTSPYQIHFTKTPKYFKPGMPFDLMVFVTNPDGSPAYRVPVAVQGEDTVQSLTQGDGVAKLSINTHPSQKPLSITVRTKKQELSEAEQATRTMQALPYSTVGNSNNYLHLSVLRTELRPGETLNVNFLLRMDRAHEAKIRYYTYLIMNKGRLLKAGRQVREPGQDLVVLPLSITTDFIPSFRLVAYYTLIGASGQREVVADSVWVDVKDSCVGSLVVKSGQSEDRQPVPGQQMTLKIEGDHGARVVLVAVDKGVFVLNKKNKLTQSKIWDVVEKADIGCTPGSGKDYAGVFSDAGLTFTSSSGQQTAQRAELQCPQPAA
Sequence of human C3bBb (P01024 749-1663 partner): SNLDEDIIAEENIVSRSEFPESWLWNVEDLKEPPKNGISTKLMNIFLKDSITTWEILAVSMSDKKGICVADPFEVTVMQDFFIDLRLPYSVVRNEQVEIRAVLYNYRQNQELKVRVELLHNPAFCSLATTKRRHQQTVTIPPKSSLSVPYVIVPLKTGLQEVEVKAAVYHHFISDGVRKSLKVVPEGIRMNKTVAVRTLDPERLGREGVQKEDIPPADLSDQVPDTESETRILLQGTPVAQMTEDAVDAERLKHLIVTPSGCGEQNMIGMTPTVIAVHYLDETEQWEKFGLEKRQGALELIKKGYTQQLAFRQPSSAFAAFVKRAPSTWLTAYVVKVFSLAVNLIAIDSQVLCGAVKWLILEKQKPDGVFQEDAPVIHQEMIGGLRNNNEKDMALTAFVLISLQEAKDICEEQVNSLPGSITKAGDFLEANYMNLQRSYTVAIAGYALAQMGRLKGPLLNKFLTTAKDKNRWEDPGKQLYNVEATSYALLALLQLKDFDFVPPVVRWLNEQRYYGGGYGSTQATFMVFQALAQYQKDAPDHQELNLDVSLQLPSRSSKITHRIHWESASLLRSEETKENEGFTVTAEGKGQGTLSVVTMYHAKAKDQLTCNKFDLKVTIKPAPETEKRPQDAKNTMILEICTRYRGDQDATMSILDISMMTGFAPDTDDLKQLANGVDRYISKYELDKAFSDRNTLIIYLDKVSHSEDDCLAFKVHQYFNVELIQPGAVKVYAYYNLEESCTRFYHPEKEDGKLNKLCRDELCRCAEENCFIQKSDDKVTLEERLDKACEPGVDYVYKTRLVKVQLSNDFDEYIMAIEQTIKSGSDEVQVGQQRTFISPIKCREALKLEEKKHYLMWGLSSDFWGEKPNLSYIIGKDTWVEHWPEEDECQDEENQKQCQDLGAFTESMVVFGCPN

| IC50 (human C3bBb; [2]) [nM] | IC50 (human C3bBb; [3]) [nM] | SMILES | IC50 [1] [nM] |
| --- | --- | --- | --- |
| 50 to 100 |  | COc1cc(C)c2[nH]ccc2c1CN1CC[C@H](NCC2(F)CC2)C[C@H]1c1ccc(C(=O)O)cc1 [Example 23, 4-((2S,4S)-4-(((1-fluorocyclopropyl)methyl)amino)-1-((5-methoxy-7-methyl-1H-indol-4-yl)methyl)piperidin-2-yl)benzoic acid] | 300 to 500 |
| 10 to 25 |  | COc1cc(C)c2[nH]ccc2c1CN1CC[C@H](NC2CC(F)(F)C2)C[C@H]1c1ccc(C(=O)O)cc1 [Example 24, 4-((2S,4S)-4-((3,3-difluorocyclobutyl)amino)-1-((5-methoxy-7-methyl-1H-indol-4-yl)methyl)piperidin-2-yl)benzoic acid] | 200 to 300 |
| < 10 |  | Cc1cc(C2CC2)c(CN2CC[C@H](NC3CC(F)(F)C3)C[C@H]2c2ccc(C(=O)O)cc2)c2cc[nH]c12 [Example 25, 4-((2S,4S)-1-((5-cyclopropyl-7-methyl-1H-indol-4-yl)methyl)-4-((3,3-difluorocyclobutyl)amino)piperidin-2-yl)benzoic acid] | < 100 |
| 50 to 100 |  | COc1cc(C)c2[nH]ccc2c1CN1CC[C@H](NCC2CC2)C[C@H]1c1ccc(C(=O)O)cc1 [Example 26, 4-((2S,4S)-4-((cyclopropylmethyl)amino)-1-((5-methoxy-7-methyl-1H-indol-4-yl)methyl)piperidin-2-yl)benzoic acid] | 100 to 200 |
| < 10 |  | COc1cc(C)c2[nH]ccc2c1CN1CC[C@H](OC(F)F)C[C@H]1c1ccc(C(=O)O)cc1 [Example 28, 4-((2S,4S)-4-(difluoromethoxy)-1-((5-methoxy-7-methyl-1H-indol-4-yl)methyl)piperidin-2-yl)benzoic acid] | 100 to 200 |
|  | > 100 | COc1cc(C)c2[nH]ccc2c1CN1CC[C@@H](OC(F)F)C[C@@H]1c1ccc(C(=O)O)cc1 [Example 29, 4-((2R,4R)-4-(difluoromethoxy)-1-((5-methoxy-7-methyl-1H-indol-4-yl)methyl)piperidin-2-yl)benzoic acid] | > 500 |
| < 10 |  | COc1cc(C)c2[nH]ccc2c1CN1CCC2(COC2)C[C@H]1c1ccc(C(=O)O)cc1 [Example 32, (S)-4-(7-((5-methoxy-7-methyl-1H-indol-4-yl)methyl)-2-oxa-7-azaspiro[3.5]nonan-6-yl)benzoic acid] | < 100 |
|  | 50 to 100 | COc1cc(C)c2[nH]ccc2c1CN1CC[C@H](c2ccccn2)C[C@H]1c1ccc(C(=O)O)cc1 [Example 38, 4-((2S,4S)-1-((5-methoxy-7-methyl-1H-indol-4-yl)methyl)-4-(pyridin-2-yl)piperidin-2-yl)benzoic acid] | 200 to 300 |
|  | > 100 | COc1cc(C)c2[nH]ccc2c1CN1CC2(CCC2)[C@H]1c1ccc(C(=O)O)cc1 [Example 40, (R)-4-(2-((5-methoxy-7-methyl-1H-indol-4-yl)methyl)-2-azaspiro[3.3]heptan-1-yl)benzoic acid] | 300 to 500 |
| < 10 |  | COc1cc(C)c2[nH]ccc2c1CN1CC[C@H](CCC(F)(F)F)C[C@H]1c1ccc(C(=O)O)cc1 [Example 42, 4-((2S,4S)-1-((5-methoxy-7-methyl-1H-indol-4-yl)methyl)-4-(3,3,3-trifluoropropyl)piperidin-2-yl)benzoic acid] | 200 to 300 |
| < 10 |  | COc1cc(C)c2[nH]ccc2c1CN1CC[C@H](CC2CC2)C[C@H]1c1ccc(C(=O)O)cc1 [Example 44, 4-((2S,4S)-4-(cyclopropylmethyl)-1-((5-methoxy-7-methyl-1H-indol-4-yl)methyl)piperidin-2-yl)benzoic acid] | < 100 |
| < 10 |  | COc1cc(C)c2[nH]ccc2c1CN1CCC2(C[C@H]1c1ccc(C(=O)O)c(F)c1)CC(F)(F)C2 [Example 50, (S)-4-(2,2-difluoro-7-((5-methoxy-7-methyl-1H-indol-4-yl)methyl)-7-azaspiro[3.5]nonan-6-yl)-2-fluorobenzoic acid] | < 100 |
| < 10 |  | COc1cc(C)c2[nH]ccc2c1CN1CCC2(C[C@H]1c1ccc(C(=O)O)cc1)CC1(CC1)C2 [Example 51, (S)-4-(8-((5-methoxy-7-methyl-1H-indol-4-yl)methyl)-8-azadispiro[2.1.5^5.1^3]undecan-7-yl)benzoic acid] | < 100 |
| < 10 |  | COc1cc(C)c2[nH]cc(Cl)c2c1CN1CCC2(C[C@H]1c1ccc(C(=O)O)cc1)CC(F)(F)C2 [Example 53, (S)-4-(7-((3-chloro-5-methoxy-7-methyl-1H-indol-4-yl)methyl)-2,2-difluoro-7-azaspiro[3.5]nonan-6-yl)benzoic acid] | < 100 |
| < 10 |  | COc1cc(C)c2[nH]cc(F)c2c1CN1CCC2(C[C@H]1c1ccc(C(=O)O)cc1)CC(F)(F)C2 [Example 54, (S)-4-(2,2-difluoro-7-((3-fluoro-5-methoxy-7-methyl-1H-indol-4-yl)methyl)-7-azaspiro[3.5]nonan-6-yl)benzoic acid] | < 100 |
| < 10 |  | COc1cc(C)c2[nH]ccc2c1CN1CCC2(CC(=O)C2)C[C@H]1c1ccc(C(=O)O)cc1 [Example 58, (S)-4-(7-((5-methoxy-7-methyl-1H-indol-4-yl)methyl)-2-oxo-7-azaspiro[3.5]nonan-6-yl)benzoic acid] | 100 to 200 |
| < 10 |  | COc1cc(C)c2[nH]ccc2c1CN1CC[C@]2(C[C@H]1c1ccc(C(=O)O)cc1)C[C@@H](F)C2 [Example 61, 4-((2S,4r,6S)-2-fluoro-7-((5-methoxy-7-methyl-1H-indol-4-yl)methyl)-7-azaspiro[3.5]nonan-6-yl)benzoic acid and 4-((2R,4s,6S)-2-fluoro-7-((5-methoxy-7-methyl-1H-indol-4-yl)methyl)-7-azaspiro[3.5]nonan-6-yl)benzoic acid] | < 100 |
| 10 to 25 |  | COc1cc(C)c2[nH]ccc2c1CN1CCN(CC(F)(F)F)C[C@H]1c1ccc(C(=O)O)cc1 [Example 65, (R)-4-(1-((5-methoxy-7-methyl-1H-indol-4-yl)methyl)-4-(2,2,2-trifluoroethyl)piperazin-2-yl)benzoic acid] | 200 to 300 |
| 25 to 50 |  | COc1cc(C)c2[nH]ccc2c1CN1CCN(CC(F)F)C[C@H]1c1ccc(C(=O)O)cc1 [Example 66, (R)-4-(4-(2,2-difluoroethyl)-1-((5-methoxy-7-methyl-1H-indol-4-yl)methyl)piperazin-2-yl)benzoic acid] | 100 to 200 |
| 50 to 100 |  | COc1cc(C)c2[nH]ccc2c1CN1CCN(CC2CC(F)(F)C2)C[C@H]1c1ccc(C(=O)O)cc1 [Example 67, (R)-4-(4-((3,3-difluorocyclobutyl)methyl)-1-((5-methoxy-7-methyl-1H-indol-4-yl)methyl)piperazin-2-yl)benzoic acid] | 300 to 500 |
| < 10 |  | COc1cc(C)c2[nH]ccc2c1CN1CCN(CCC(F)(F)F)C[C@H]1c1ccc(C(=O)O)cc1 [Example 68, (R)-4-(1-((5-methoxy-7-methyl-1H-indol-4-yl)methyl)-4-(3,3,3-trifluoropropyl)piperazin-2-yl)benzoic acid] | 100 to 200 |
| 50 to 100 |  | COc1cc(C)c2[nH]ccc2c1CN1CCN(CC2(F)COC2)C[C@H]1c1ccc(C(=O)O)cc1 [Example 69, (R)-4-(4-((3-fluorooxetan-3-yl)methyl)-1-((5-methoxy-7-methyl-1H-indol-4-yl)methyl)piperazin-2-yl)benzoic acid] | 100 to 200 |
| 25 to 50 |  | COc1cc(C)c2[nH]ccc2c1CN1CCN(CCF)C[C@H]1c1ccc(C(=O)O)cc1 [Example 70, (R)-4-(4-(2-fluoroethyl)-1-((5-methoxy-7-methyl-1H-indol-4-yl)methyl)piperazin-2-yl)benzoic acid] | 200 to 300 |
| 25 to 50 |  | COc1cc(C)c2[nH]ccc2c1CN1CC[C@H](N2CC(OC(F)(F)F)C2)C[C@H]1c1ccc(C(=O)O)cc1 [Example 72, 4-((2S,4S)-1-((5-methoxy-7-methyl-1H-indol-4-yl)methyl)-4-(3-(trifluoromethoxy)azetidin-1-yl)piperidin-2-yl)benzoic acid] | 200 to 300 |
| < 10 |  | COc1cc(C)c2[nH]ccc2c1CN1CC[C@H](N2CC(C#N)C2)C[C@H]1c1ccc(C(=O)O)cc1 [Example 73, 4-((2S,4S)-4-(3-cyanoazetidin-1-yl)-1-((5-methoxy-7-methyl-1H-indol-4-yl)methyl)piperidin-2-yl)benzoic acid] | 100 to 200 |
| < 10 |  | COc1cc(C)c2[nH]ccc2c1CN1CC[C@H](N2CC(C(F)F)C2)C[C@H]1c1ccc(C(=O)O)cc1 [Example 74, 4-((2S,4S)-4-(3-(difluoromethyl)azetidin-1-yl)-1-((5-methoxy-7-methyl-1H-indol-4-yl)methyl)piperidin-2-yl)benzoic acid] | 100 to 200 |
| 10 to 25 |  | COc1cc(C)c2[nH]cc(Cl)c2c1CN1CC[C@H](N2CC(C(F)(F)F)C2)C[C@H]1c1ccc(C(=O)O)cc1 [Example 75, 4-((2S,4S)-1-((3-chloro-5-methoxy-7-methyl-1H-indol-4-yl)methyl)-4-(3-(trifluoromethyl)azetidin-1-yl)piperidin-2-yl)benzoic acid] | 200 to 300 |

| SMILES | IC50 (human C3bBb; [2]) [nM] | IC50 (human C3bBb; [3]) [nM] | IC50 [1] [nM] |
| --- | --- | --- | --- |
| COc1cc(C)c2[nH]ccc2c1CN1CCC2(C[C@H]1c1ccc(C(=O)O)cc1)CC(F)(F)C2 [Example 45, (S)-4-(2,2-difluoro-7-((5-methoxy-7-methyl-1H-indol-4-yl)methyl)-7-azaspiro[3.5]nonan-6-yl)benzoic acid] | < 10 |  | < 100 |
